Patent publication US10517889B2, “Modulators of SMAD7 expression” (Ionis Pharmaceuticals, Inc., priority 2017, dated 2019)
Strand notation (5' to 3'): a small letter for the sugar, then the base; units joined by * are phosphorothioate-linked, units joined directly phosphodiester-linked; [ ] holds rarer units or linkages, { } end groups; capitals alone tell only the bases. k = constrained ethyl (cEt); [5mC] = 5-methylcytosine; d = 2'-deoxy (DNA)

How the values were obtained:
[1] = tested on: human SMAD7 mRNA; assay: Antisense inhibition of human SMAD7 mRNA expression in Hep3B cells by 3-10-3 cEt gapmers, 10,000 nM, electroporation (Example 2); assay type: cell-based; details: approximately 24 hours
Summary of the method: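 Hep3B cells (20,000/well) were electroporated with 10,000 nM 3-10-3 cEt gapmer (16-mer, phosphorothioate, 5-methylcytosines) and harvested after about 24 h. SMAD7 mRNA quantified by RT-qPCR with primer probe set RTS5062, normalized to total RNA by RiboGreen; percent inhibition relative to untreated cells.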

[2] = tested on: human SMAD7 mRNA; assay: Dose-dependent inhibition of human SMAD7 mRNA expression in Hep3B cells (Example 3, Study 1 and 2); assay type: cell-based; details: electroporation; for % inhibition of SMAD7 mRNA expression: approximately 16 hours; for IC50: Study 2 (740-20000 nM)
Method: The antisense oligonucleotides were tested in a series of experiments that had similar culture conditions as described below.
(§1) Cells were plated at a density of 20,000 cells per well and transfected using electroporation with 0.31 μM, 1.25 μM, 5.00 μM, or 20.00 μM concentrations of antisense oligonucleotide, as specified in the Tables below. ION 483663 was included in the assays for comparison. After a treatment period of approximately 16 hours, RNA was isolated from the cells and SMAD7 mRNA levels were measured by quantitative real-time PCR. Primer probe set RTS5062 was used to measure human SMAD7 mRNA levels. SMAD7 mRNA levels were adjusted according to total RNA content, as measured by RIBOGREEN®. Results are presented as percent inhibition of SMAD7 mRNA expression, relative to untreated control cells.
The half maximal inhibitory concentration (IC50) of each oligonucleotide is also presented.
as §1, with “0.74” for “0.31”, “2.22” for “1.25”, “6.67” for “5.00”, “below.” for “below. ION 483663 was included in the assays for comparison.”

[3] = Hep3B cells, electroporation with 10,000 nM antisense oligonucleotide, RTS5062, percent inhibition of SMAD7 mRNA relative to untreated control cells
[4] = 740 nM, Study 2, relative to untreated control cells
[5] = SMAD7 mRNA, Hep3B cells, 10,000 nM antisense oligonucleotide, electroporation, primer probe set RTS5062, relative to untreated control cells
[6] = Hep3B cells, electroporation with 10,000 nM antisense oligonucleotide, SMAD7 mRNA by RT-PCR (RTS5062), relative to untreated control cells
[7] = Hep3B cells, electroporation, 10,000 nM antisense oligonucleotide, RTS5062, relative to untreated control cells
[8] = Hep3B cells, electroporation with 10,000 nM antisense oligonucleotide, primer probe set RTS5062, relative to untreated control cells

| Substance | % Inhibition [1, 3] [%] | % inhibition of SMAD7 mRNA expression [2, 4] [%] | % inhibition of SMAD7 mRNA expression ([2]; 2220 nM, Study 2) [%] | % inhibition of SMAD7 mRNA expression ([2]; 6670.0 nM, Study 2) [%] | % inhibition of SMAD7 mRNA expression ([2]; 20000.0 nM, Study 2) [%] | IC50 [2] [µM] | % Inhibition [1, 5] [%] | % Inhibition [1, 6] [%] | % inhibition of SMAD7 mRNA expression [1, 7] [%] | % Inhibition [1, 8] [%] | % inhibition of SMAD7 mRNA expression [1, 8] [%] |
| --- | --- | --- | --- | --- | --- | --- | --- | --- | --- | --- | --- |
| 799605 (k[5mC]*k[5mC]*kA*dA*dT*dA*dA*dA*dG*dT*dT*d[5mC]*d[5mC]*k[5mC]*kT*kT; antisense) [compound 799605] | 56 | 18 | 46 | 51 | 75 | 8 |  |  |  |  |  |
| 790666 (kT*kA*kA*dT*dT*dT*dA*dT*dG*dA*d[5mC]*dA*dA*k[5mC]*kG*k[5mC]; antisense) [compound 790666] |  | 13 | 49 | 54 | 74 | 4 | 72 |  |  |  |  |
| 829767 (antisense kG*kG*kA*dG*dG*d[5mC]*dA*d[5mC]*dG*d[5mC]*dG*dG*dT*kG*k[5mC]*kG) [compound 829767] |  | 5 | 6 | 36 | 49 | 3 | 66 |  |  |  |  |
| 830135 (antisense kA*kA*kG*dT*dA*d[5mC]*dA*dA*dT*d[5mC]*dT*d[5mC]*d[5mC]*kT*kG*kG) [compound 830135] |  | 16 | 44 | 56 | 71 | 5 |  | 64 |  |  |  |
| 799564 (k[5mC]*kA*kG*dA*dT*dA*dA*d[5mC]*dA*dG*dA*dG*dT*kA*kT*kA; antisense) [compound 799564] | 70 | 13 | 41 | 60 | 73 | 3 |  |  |  |  |  |
| 799577 (kT*kT*k[5mC]*d[5mC]*dG*dA*dA*dA*dG*dG*dA*d[5mC]*d[5mC]*k[5mC]*kT*kT; antisense) [compound 799577] |  | 35 | 64 | 75 | 86 | 2 |  |  | 55 |  |  |
| 830131 (antisense k[5mC]*k[5mC]*k[5mC]*dA*d[5mC]*d[5mC]*dT*d[5mC]*d[5mC]*dG*dA*dG*dG*k[5mC]*kA*k[5mC]) [compound 830131] |  | 34 | 48 | 51 | 61 | 5 |  | 68 |  |  |  |
| 830095 (kT*kG*kA*dG*dT*dA*dA*dA*d[5mC]*dA*dA*dT*dA*k[5mC]*k[5mC]*k[5mC]; antisense) [compound 830095] |  | 3 | 37 | 42 | 60 | 2 |  | 73 |  |  |  |
| 790614 (kG*kA*kG*dA*dA*dT*dG*d[5mC]*dT*dT*d[5mC]*dT*d[5mC]*kT*kT*kG; antisense) [compound 790614] |  | 0 | 29 | 45 | 54 | 11 |  |  |  | 70 |  |
| 799751 (antisense kG*kA*kG*d[5mC]*dT*dA*dA*dT*dG*dA*d[5mC]*dA*d[5mC]*kT*kG*kG) [compound 799751] |  | 11 | 35 | 69 | 65 | 10 |  |  | 60 |  |  |
| 790488 (kT*kT*k[5mC]*d[5mC]*dG*dA*dG*dG*dA*dA*dT*dG*d[5mC]*k[5mC]*kT*kG; antisense) [compound 790488] |  | 12 | 34 | 46 | 67 | 7 | 81 |  |  |  |  |
| 799321 (antisense kA*kT*k[5mC]*dT*dG*dG*dA*d[5mC]*dA*dG*dT*d[5mC]*dT*kG*k[5mC]*kT) [compound 799321] |  | 0 | 5 | 36 | 67 | < 0.7 |  |  | 93 |  |  |
| 799159 (antisense kG*kT*kG*dT*dA*dT*dG*dA*dG*dT*dT*dG*dT*kA*kG*kA) [compound 799159] |  | 43 | 55 | 78 | 90 | 19 |  |  |  | 56 |  |
| 800066 (antisense kT*kG*kT*dT*dT*dT*dA*dA*dG*dT*dA*dG*d[5mC]*kA*kG*k[5mC]) [compound 800066] |  | 7 | 42 | 62 | 82 | 9 |  | 63 |  |  |  |
| 799667 (antisense kA*k[5mC]*kA*dG*dA*dT*dG*d[5mC]*d[5mC]*dA*dG*d[5mC]*dA*kA*kG*kG) [compound 799667] | 79 | 8 | 8 | 17 | 47 | 9 |  |  |  |  |  |
| 799382 (antisense kA*k[5mC]*kT*dT*dT*dT*dA*dG*d[5mC]*dA*dA*dA*d[5mC]*kA*kG*kA) [compound 799382] |  | 0 | 36 | 56 | 75 | 3 |  |  |  |  | 82 |
| 829762 (antisense k[5mC]*k[5mC]*kT*dT*d[5mC]*dA*dG*dA*dT*d[5mC]*d[5mC]*dG*d[5mC]*k[5mC]*kT*k[5mC]) [compound 829762] |  | 27 | 41 | 59 | 78 | > 20 | 67 |  |  |  |  |
| 830044 (k[5mC]*kG*kA*dT*dT*dG*dG*d[5mC]*dA*dG*dG*dT*dT*kA*kA*kT; antisense) [compound 830044] |  | 47 | 61 | 80 | 93 | 10 |  | 60 |  |  |  |
| 799369 (antisense kA*k[5mC]*kT*d[5mC]*dA*d[5mC]*dT*dA*dA*dG*dT*d[5mC]*dT*k[5mC]*k[5mC]*kG) [compound 799369] |  | 1 | 10 | 46 | 74 | 6 |  | 50 |  |  |  |
| 830168 (antisense kA*kT*kG*d[5mC]*dT*dT*dT*dT*dA*d[5mC]*dA*d[5mC]*dA*k[5mC]*k[5mC]*k[5mC]) [compound 830168] |  | 31 | 46 | 65 | 73 | 3 |  | 81 |  |  |  |
